In patent US9675596B2, “1,2,4-thiazolidin-3-one derivatives and their use in the treatment of cancer” (Baltic Bio AB, priority 2009, dated 2017) one finds activity data, which are given here for 27 compounds.

One experiment concerns PC-3 cells. Put plainly: Cell proliferation assay (BrdU incorporation). As to conditions: Homo sapiens, serum-free, 1.25 μM, relative to vehicle control (1 unit), 18 h + 6 h BrdU, read-out: Units of BrdU incorporation. The class given is cell-based. The procedure: PC-3 cancer cell lines were propagated in D-MEM (Gibco 21885) supplemented with 10% Foetal calf serum. 15000 cells per well were seeded in 96 well plates and incubated overnight. The culture media was changed to serum-free D-MEM for 24 h. The culture media was then changed to serum free D-MEM containing either 0.2% DMSO as vehicle control or 0.3, 0.6, 1.2 or 2.5 μM (or 1.25, 2.5, 5, 10 μM (as indicated in Table 1 below)) of the selected compounds of Example 1 to Example 8 in 0.2% DMSO in quadruplicate. After 18 h incubation, BrdU was added according to manufacturer's recommendations. After 6 h incubation in the presence of BrdU, the culture media was removed and BrdU incorporation was measured using “Cell Proliferation ELISA, BrdU colorimetric” Roche (11647229001) according to manufacturer's recommendations.
Proliferation rate of PC-3 cells are reduced by relevant concentrations of the test compounds as measured by BrdU incorporation.
Background: Uptake of a labelled nucleoside into DNA is a usual measure of proliferation.
Regarding `O=c1[nH]s/c(=N\c2ccc(Cl)c(Cl)c2)n1C(c1ccccc1)c1ccccc1` [Example 6, 4-Benzhydryl-5-(3,4-dichlorophenyl)imino-1,2,4-thiadiazolidin-3-one], the activity at 1.25 µM is 42%.

For `O=c1nc(Nc2ccc(Cl)c(Cl)c2)sn1Cc1ccc(F)c(F)c1` [Example 8c, 1,5-(3,4-dichlorophenylamino)-2-(3,4-difluorobenzyl)-[1,2,4]thiadiazol-3-one], the activity at 1.25 µM was 7%.

The experiment is the same for the next values; noted with them: Homo sapiens, serum-free, 2.5 μM, relative to vehicle control (1 unit), 18 h + 6 h BrdU, read-out: Units of BrdU incorporation.
As for `O=C(Nc1nc(=O)n(Cc2ccc(F)cc2)s1)c1ccc(OC(F)(F)F)cc1` [Example 4n, N-[2-[(4-fluorophenyl)methyl]-3-oxo-1,2,4-thiadiazol-5-yl]-4-(trifluoromethoxy)-benzamide], the activity at 2.5 µM turned out to be 17%.

Take `O=c1nc(Nc2ccc(Cl)c(Cl)c2)sn1Cc1ccc(Cl)cc1` [Example 8b, 1,5-(3,4-dichlorophenylamino)-2-(4-chlorobenzyl)-[1,2,4]thiadiazol-3-one]: the activity at 2.5 µM was determined as 18%.

Take `COc1ccc(Cn2sc(Nc3ccc(Cl)c(Cl)c3)nc2=O)cc1` [Example 8a, 1,5-(3,4-Dichlorophenylamino)-2-(4-methoxybenzyl)-[1,2,4]thiadiazol-3-one]: the activity at 2.5 µM came to 4%.

The same experiment, now with this note: Homo sapiens, serum-free, 5 μM, relative to vehicle control (1 unit), 18 h + 6 h BrdU, read-out: Units of BrdU incorporation.
For `O=c1nc(Nc2ccc(OC(F)(F)F)cc2)sn1Cc1ccc(F)c(F)c1` [Example 8l, 2-[(3,4-difluorophenyl)methyl]-5-[[4-(trifluoromethoxy)phenyl]amino]-1,2,4-thiadiazol-3-one], the activity at 5 µM was found to be 10%.

With `O=c1nc(Nc2ccc(C(F)(F)F)cc2)sn1Cc1ccc(Cl)cc1` [Example 8p, 2-[(4-chlorophenyl)methyl]-5-[[4-(trifluoromethyl)phenyl]amino]-1,2,4-thiadiazol-3-one], the activity at 5 µM came to 7%.

For `O=c1[nH]s/c(=N\c2ccc(Cl)c(Cl)c2)n1Cc1ccccc1` [Example 2e], the activity at 5 µM turned out to be 17%.

As to `O=c1nc(Nc2ccc(C(F)(F)F)cc2)sn1CCc1ccccc1` [Example 8r, 2-[phenylethyl]-5-[[4-(trifluoromethyl)phenyl]amino]-1,2,4-thiadiazol-3-one], the activity at 5 µM amounted to 58%.

In the case of `O=c1nc(Nc2ccc(Cl)c(Cl)c2)sn1CCc1ccccc1` [Example 8f, 5-(3,4-dichlorophenylamino)-2-phenethyl-[1,2,4]thiadiazol-3-one], the activity at 5 µM was 8%.

For the compound `N#Cc1ccc(Nc2nc(=O)n(Cc3ccc(F)c(F)c3)s2)cc1` [Example 8w, 4-[[2-[(3,4-difluorophenyl)methyl]-3-oxo-1,2,4-thiadiazol-5-yl]amino]benzonitrile], the activity at 5 µM was 28%.

Take `O=c1nc(Nc2ccc(C(F)(F)F)cc2)sn1Cc1cccc(F)c1` [Example 8q, 2-[(3-fluorophenyl)methyl]-5-[[4-(trifluoromethyl)phenyl]amino]-1,2,4-thiadiazol-3-one]: the activity at 5 µM is 15%.

Take `O=C(Nc1nc(=O)n(C2(c3ccc(F)cc3)CC2)s1)c1ccc(Cl)c(Cl)c1` [Example 4i, 3,4-dichloro-N-[2-[1-(4-fluorophenyl)cyclopropyl]-3-oxo-1,2,4-thiadiazol-5-yl]benzamide]: the activity at 5 µM was found to be 10%.

For `O=c1nc(Nc2ccc(C(F)(F)F)cc2)sn1Cc1ccc(F)c(F)c1` [Example 8k, 2-[(3,4-difluorophenyl)methyl]-5-[[4-(trifluoromethyl)phenyl]amino]-1,2,4-thiadiazol-3-one], the activity at 5 µM turned out to be 4%.

The experiment is the same for the next values; noted with them: Homo sapiens, serum-free, 10 μM, relative to vehicle control (1 unit), 18 h + 6 h BrdU, read-out: Units of BrdU incorporation.
Turning to `O=C(Nc1nc(=O)n(Cc2cccc(C(F)(F)F)c2)s1)c1ccccc1` [Example 3, N-[3-oxo-2-[[3-(trifluoromethyl)phenyl]methyl]-1,2,4-thiadiazol-5-yl]benzamide], the activity at 10 µM was 70%.

For the compound `O=C(Nc1nc(=O)n(Cc2ccc(F)cc2)s1)c1ccc(F)c(F)c1` [Example 4p, 3,4-difluoro-N-[2-[(4-fluorophenyl)methyl]-3-oxo-1,2,4-thiadiazol-5-yl]benzamide], the activity at 10 µM worked out at 26%.

With `O=C(Nc1nc(=O)n(Cc2ccc(F)cc2)s1)c1cc(C(F)(F)F)cc(C(F)(F)F)c1` [Example 4o, N-[2-[(4-fluorophenyl)methyl]-3-oxo-1,2,4-thiadiazol-5-yl]-3,5-bis(trifluoromethyl)-benzamide], the activity at 10 µM was 28%.

For `O=c1nc(Nc2ccc(Cl)c(Cl)c2)sn1CCOc1ccccc1` [Example 5b, 5-(3,4-Dichloro-phenylamino)-2-(2-phenoxy-ethyl)-[1,2,4]thiadiazol-3-one], the activity at 10 µM was determined as 14%.

Consider `CN(CCn1c(=O)[nH]s/c1=N\c1ccc(Cl)c(Cl)c1)c1ccc(Cl)cc1` [Example 2g, 4-[2-[(4-chlorophenyl)-methyl-amino]ethyl]-5-(3,4-dichlorophenyl)imino-1,2,4-thiadiazolidin-3-one], for which the activity at 10 µM stood at 14%.

As for `O=C(Nc1nc(=O)n(Cc2ccc(F)cc2)s1)c1c(Cl)cccc1Cl` [Example 4l, 2,6-dichloro-N-[2-[(4-fluorophenyl)methyl]-3-oxo-1,2,4-thiadiazol-5-yl]benzamide], the activity at 10 µM worked out at 20%.

As for `O=C(Nc1nc(=O)n(Cc2ccc(F)c(F)c2)s1)c1ccc(Cl)cc1` [Example 4c, 4-chloro-N-[2-[(3,4-difluorophenyl)methyl]-3-oxo-1,2,4-thiadiazol-5-yl]benzamide], the activity at 10 µM was 39.3%.

On to `O=C(Nc1nc(=O)n(Cc2ccc(Cl)cc2)s1)c1ccc(Cl)cc1` [Example 4e, 4-chloro-N-[2-[(4-chlorophenyl)methyl]-3-oxo-1,2,4-thiadiazol-5-yl]benzamide], for which the activity at 10 µM came to 35.5%.

Consider `O=C(Nc1nc(=O)n(Cc2ccc(F)cc2)s1)c1ccc(Cl)cc1` [Example 4d, 4-chloro-N-[2-[(4-fluorophenyl)methyl]-3-oxo-1,2,4-thiadiazol-5-yl]benzamide], for which the activity at 10 µM amounted to 61.2%.

Consider `O=c1[nH]s/c(=N\c2ccc(Cl)c(Cl)c2)n1CCOc1ccccc1` [Example 5a, 5-(3,4-dichlorophenyl)imino-4-(2-phenoxyethyl)-1,2,4-thiadiazolidin-3-one], for which the activity at 10 µM is 37%.

Regarding `O=C(Nc1nc(=O)n(Cc2ccc(F)cc2)s1)c1ccc(Cl)cc1Cl` [Example 4m, 2,4-dichloro-N-[2-[(4-fluorophenyl)methyl]-3-oxo-1,2,4-thiadiazol-5-yl]benzamide], the activity at 10 µM turned out to be 23%.

For `O=C(Nc1nc(=O)n(Cc2cccc(C(F)(F)F)c2)s1)c1ccc(F)cc1` [Example 4a, 4-fluoro-N-[3-oxo-2-[[3-(trifluoromethyl)phenyl]methyl]-1,2,4-thiadiazol-5-yl]benzamide], the activity at 10 µM was found to be 30.9%.

Consider `O=C(Cc1ccc(F)cc1)Nc1nc(=O)n(Cc2cccc(C(F)(F)F)c2)s1` [Example 4b, 2-(4-fluorophenyl)-N-[3-oxo-2-[[3-(trifluoromethyl)phenyl]methyl]-1,2,4-thiadiazol-5-yl]acetamide], for which the activity at 10 µM is 72%.
